{
  "source": "paper PMC7586386",
  "about": "“Discovery of Covalent Inhibitors Targeting the Transcriptional Enhanced Associate Domain Central Pocket” (Journal of Medicinal Chemistry, 2020)",
  "key": {"Ser mutant of mTEAD4": {"molecular_target": "T1, Ser mutant of mTEAD4 (Mus musculus, UniProt Q62296, C360S)", "T1 construct": "His (N); made in house", "T1 sequence (Q62296 whole entry C360S)": "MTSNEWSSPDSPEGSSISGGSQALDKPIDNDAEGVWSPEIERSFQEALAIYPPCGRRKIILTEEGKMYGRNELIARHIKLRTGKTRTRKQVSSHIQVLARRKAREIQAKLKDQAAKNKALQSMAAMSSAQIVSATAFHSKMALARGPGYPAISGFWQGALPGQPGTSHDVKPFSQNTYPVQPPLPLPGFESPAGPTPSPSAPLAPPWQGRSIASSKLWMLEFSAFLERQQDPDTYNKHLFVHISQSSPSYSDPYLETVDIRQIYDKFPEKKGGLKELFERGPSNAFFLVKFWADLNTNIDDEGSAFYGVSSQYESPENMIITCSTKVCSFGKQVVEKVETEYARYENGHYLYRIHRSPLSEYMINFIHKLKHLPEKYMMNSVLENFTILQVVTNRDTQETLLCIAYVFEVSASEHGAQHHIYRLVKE", "assay": "Thiol conjugation assay with cysteine mutant", "type": "binding", "settings": "10 μM compound", "experimental": "(§1) To serially diluted solutions of the tested compounds in 5 μL of assay buffer [HEPES (25 mM) and NaCl (150 mM) pH 6.5], freshly prepared 5 μL of 0.45 μM protein solution was added and incubated at room temperature for 10 min, followed by addition of 5 μL of 0.45 μM CPM solution, giving a 15 μL final assay volume, 150 nM protein, and 150 nM CPM. The assay plate was shaken at room temperature for 1 h before measuring the fluorescence (Ex/Em: 380/470 nm). Compound 19 was used as an internal standard to determine 100% inhibition."}, "Ala mutant of mTEAD4": {"molecular_target": "T2, Ala mutant of mTEAD4 (Mus musculus, UniProt Q62296, C360A)", "T2 construct": "N-terminal His6- and MBP-tagged mTEAD4^209–427 with Cys360Ala mutation; made in house; host or cells: E. coli BL21-CodonPlus (DE3)-RIPL", "T2 sequence (Q62296 209-427 C360A)": "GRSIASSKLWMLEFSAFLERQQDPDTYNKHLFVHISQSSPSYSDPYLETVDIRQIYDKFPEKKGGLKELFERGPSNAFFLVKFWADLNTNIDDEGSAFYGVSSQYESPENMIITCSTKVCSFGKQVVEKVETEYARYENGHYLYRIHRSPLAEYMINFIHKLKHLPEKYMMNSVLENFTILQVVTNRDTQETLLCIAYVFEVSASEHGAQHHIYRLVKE", "assay": "Thiol conjugation assay with cysteine mutant", "type": "binding", "settings": "10 μM compound", "experimental": "as §1"}, "[1]": {"assay": "Assay media stability (HPLC)", "type": "physicochemical", "experimental": "The compounds were incubated in MES (25 mM), pH 6.5 buffer or HEPES (25 mM) and NaCl (150 mM) pH 6.5 buffer for an hour at room temperature before injecting into a reverse-phase HPLC system (ThermoScientific_Ultimate 3000) equipped with a C18 column (2/50 Nucleodur C18 gravity 1.8 μm von Macherey-Nagel)."}, "hTEAD4 (nonacylated) [2]": {"molecular_target": "T3, hTEAD4 (nonacylated) (Homo sapiens, UniProt Q15561)", "T3 construct": "N-terminal His6-tagged hTEAD4^217–434 was subcloned; made in house; host or cells: Escherichia coli BL21-CodonPlus (DE3)-RIPL", "T3 sequence (Q15561 217-434)": "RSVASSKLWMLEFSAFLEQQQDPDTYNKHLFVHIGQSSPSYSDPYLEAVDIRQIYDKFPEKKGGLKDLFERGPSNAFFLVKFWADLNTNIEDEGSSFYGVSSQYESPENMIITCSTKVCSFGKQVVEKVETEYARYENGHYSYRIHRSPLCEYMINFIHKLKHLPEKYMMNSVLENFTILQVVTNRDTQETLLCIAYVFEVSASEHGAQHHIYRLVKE", "assay": "Differential scanning fluorimetry", "type": "binding", "settings": "20 μM protein, 80 μM inhibitor; value is a decrease", "experimental": "Nonacylated hTEAD4 (20 μM) was incubated in the absence or presence of inhibitors (80 μM) at 25 °C for 10 min. Then, SYPRO orange (Sigma-Aldrich) at a final concentration of 5× was added and the mixture was heated at a ramp rate of 1 °C/min in a qPCR machine (Applied Biosystems). The derivative of the SYPRO orange fluorescent intensity is plotted as a function of temperature."}, "hTEAD4 (nonacylated) [3]": {"molecular_target": "T3, hTEAD4 (nonacylated)", "assay": "Time-dependent inhibition, FP (central pocket binding) assay", "experimental": "To serially diluted solution of the tested compounds in 5 μL assay buffer [HEPES (25 mM) and NaCl (150 mM), pH 6.5 buffer], freshly prepared 5 μL of 0.15 μM protein solution was added and incubated at room temperature for 10 min followed by 5 μL of 30 nM FITC-palmitate solution, giving 15 μL final assay volume, 50 nM protein, and 10 nM tracer. The assay plate was shaken at room temperature for 1 h before measuring the FP (Ex/Em: 485/535 nm).\nTDI of hTEAD4 (nonacylated) by compound 19 was monitored in FP (central pocket binding) and thiol conjugation assays at 5–7 different concentrations (0.15–40 μM) following 1, 2, 4, and 24 h incubation at 4 °C (mean ± SD; n = 2). By fitting the percent of inhibition versus preincubation time at different concentrations, kobs was calculated. Next, kobs was plotted against concentration and was further fitted to a nonlinear regression model to determine the kinetic parameters of covalent inhibition of hTEAD4, where plateau is showing kinact (min^–1) and t1/2 is Ki (μM)."}, "hTEAD1–4": {"system": "hTEAD1–4", "assay": "Thiol conjugation assay, TEAD homologues (range over all four)", "type": "binding, human", "experimental": "as §1"}, "hTEAD4 (acylated)": {"molecular_target": "T4, hTEAD4 (acylated) (Homo sapiens, UniProt Q15561)", "T4 construct": "N-terminal His6-tagged hTEAD4^217–434 was subcloned; made in house; host or cells: Escherichia coli BL21-CodonPlus (DE3)-RIPL", "T4 sequence (Q15561 217-434)": "as above", "assay": "Whole-protein ESI–MS of covalent modification", "type": "binding", "settings": "hTEAD4 not treated with hydroxylamine", "experimental": "(§2) The protein solution (1 μL 5 μM) was injected to UPLC-MS (ThermoScientific_UltiMate 3000 LC coupled to a Velos Pro MS) through a desalting column (MassPREP Online desalting, 2.1 × 10 mm). For reactions, 1 μM of the protein was incubated at room temperature for 1 h with 8 equiv of the compound in HEPES (25 mM) and NaCl (150 mM) pH 6.5 buffer. Then, the mixture was centrifuged before injecting 5 μL. The deconvolution of m/z values was performed using Promass Xcalibur software."}, "hTEAD4 (nonacylated) [4]": {"molecular_target": "T3, hTEAD4 (nonacylated)", "assay": "Whole-protein ESI–MS of covalent modification", "type": "binding", "settings": "8 equiv of compound, 1 h, rt", "experimental": "as §2"}, "hTEAD2": {"molecular_target": "T5, hTEAD2 (Homo sapiens, UniProt Q15562)", "T5 construct": "N-terminal His6-tagged hTEAD4^217–447 was subcloned; His6 (N); made in house; host or cells: E. coli (as described for N-His hTEAD4)", "T5 sequence (Q15562 217-447)": "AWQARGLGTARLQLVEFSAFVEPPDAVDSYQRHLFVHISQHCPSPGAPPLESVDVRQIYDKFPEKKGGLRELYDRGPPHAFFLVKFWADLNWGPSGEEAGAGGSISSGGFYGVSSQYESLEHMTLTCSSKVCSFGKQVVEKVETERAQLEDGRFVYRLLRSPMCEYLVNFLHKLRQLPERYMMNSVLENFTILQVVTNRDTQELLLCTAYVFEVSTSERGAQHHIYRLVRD", "assay": "Thiol conjugation assay, TEAD homologues", "type": "binding", "settings": "read-out: TEAD2 IC50", "experimental": "as §1"}, "hTEAD3": {"molecular_target": "T6, hTEAD3 (Homo sapiens, UniProt Q99594)", "T6 construct": "N-terminal His6-tagged hTEAD4^216–434 was expressed; His6 (N); made in house", "T6 sequence (Q99594 216-434)": "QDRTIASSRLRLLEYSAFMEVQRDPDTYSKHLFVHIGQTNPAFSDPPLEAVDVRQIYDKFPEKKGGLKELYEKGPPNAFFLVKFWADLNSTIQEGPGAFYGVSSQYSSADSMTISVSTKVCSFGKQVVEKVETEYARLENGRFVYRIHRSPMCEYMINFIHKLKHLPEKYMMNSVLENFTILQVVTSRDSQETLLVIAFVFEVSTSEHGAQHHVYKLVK", "assay": "Thiol conjugation assay, TEAD homologues", "type": "binding", "settings": "read-out: TEAD3 IC50", "experimental": "as §1"}},
  "note": "pIC50: −log10 of the molar value. Like-named read-outs stand apart in the source and are kept apart here.",
  "data": [
    {"molecule": "O=c1cc(CO)oc(C(Nc2ccccc2)c2ccccc2)c1O", "note": "(stereo not shown) [Compound 19, 3-Hydroxy-6-(hydroxymethyl)-2-(phenyl(phenylamino)methyl)-4H-pyran-4-one]", "values": [
      {"measurement": "inhibition of the increase in fluorescence signal", "setting": "Ser mutant of mTEAD4", "value": "cannot inhibit"},
      {"measurement": "inhibition of the increase in fluorescence signal", "setting": "Ala mutant of mTEAD4", "value": "cannot inhibit"},
      {"measurement": "stability in assay medium", "setting": "[1]; HEPES buffer (pH 6.5), 1 h", "value": "appearance of two small peaks was detected"},
      {"measurement": "stability in assay medium", "setting": "[1]; MES buffer, pH 6.5, 1 h, rt", "value": "stable"},
      {"measurement": "lowering of the melting point (Tm)", "setting": "hTEAD4 (nonacylated) [2]", "value": 5, "unit": "°C"},
      {"measurement": "kinact/KI", "setting": "hTEAD4 (nonacylated) [3]; FP assay", "value": 66.7, "unit": "M⁻¹ s⁻¹"},
      {"measurement": "kinact", "setting": "hTEAD4 (nonacylated) [3]; FP, read-out: kinact (converted)", "value": 0.0015, "unit": "s⁻¹"},
      {"measurement": "kinact", "setting": "hTEAD4 (nonacylated) [3]; supplementary CSV, read-out: Kinact Fluorescence Polarization (converted)", "value": 0.00015, "unit": "s⁻¹"},
      {"measurement": "pIC50", "setting": "hTEAD1–4", "value": "5.16 to 5.59"},
      {"measurement": "adduct formation with acylated protein (whole-protein ESI–MS)", "setting": "hTEAD4 (acylated)", "value": "did not result in the formation of an acylated hTEAD4-19 adduct"},
      {"measurement": "modification of the protein (whole-protein ESI–MS)", "setting": "hTEAD4 (nonacylated) [4]", "value": "modification of the protein (+230 Da) was observed"},
      {"measurement": "pIC50", "setting": "hTEAD2", "value": 5.16},
      {"measurement": "pIC50", "setting": "hTEAD3", "value": 5.34}
    ]}
  ]
}
